Measured values: ChEMBL document CHEMBL5376023, “The allure of targets for novel drugs” (RSC Med Chem, 2024)
In brackets after ≈: the same amount, converted by molar mass.

Key:
[1] = tested on: Mycobacterium tuberculosis; experiment: Antimycobacterial activity against Mycobacterium tuberculosis HN878 assessed as inhibition of mycobacterial growth incubated for 5 days; format: functional; conditions: HN878, 120 h, time 5 day
Nakaseomyces glabratus [2] = experiment: Antifungal activity against Candida glabrata MTCC 3019 assessed as inhibition of fungal growth incubated for 24 hrs by agar well diffusion method; format: functional, organism-based; conditions: MTCC 3019, 24 h
[Candida] auris = Antifungal activity against Candida auris assessed as inhibition of fungal growth; format: functional, organism-based; conditions: Candidozyma auris
Aspergillus flavus = experiment: Antifungal activity against Aspergillus flavus assessed as inhibition of fungal growth; format: functional, organism-based
Rhizopus arrhizus = experiment: Antifungal activity against Rhizopus arrhizus assessed as fungal growth inhibition; format: functional, organism-based
Fusarium oxysporum = experiment: Antifungal activity against Fusarium oxysporum assessed as inhibition of fungal growth; format: functional, organism-based
Cryptococcus neoformans = experiment: […] activity against Cryptococcus neoformans assessed as inhibition of […]; format: functional, organism-based
Nakaseomyces glabratus [3] = experiment: Antifungal activity against Candida glabrata ATCC 90030 assessed as inhibition of microbial growth incubated for 24 hrs by broth microdilution method; format: functional, organism-based; conditions: ATCC 90030, 24 h
Candida albicans = experiment: Antifungal activity against Candida albicans assessed as inhibition of fungal growth; format: functional, organism-based
Aspergillus fumigatus = experiment: Antifungal activity against Aspergillus fumigatus ATCC 13073 strain assessed as […] growth inhibition; format: functional, organism-based

| Compound | MIC99 [1] [µM] | IC50 (Nakaseomyces glabratus [2]) [µg/mL] | IC50 ([Candida] auris) [µg/mL] | IC50 (Aspergillus flavus) [µg/mL] | IC50 (Rhizopus arrhizus) [µg/mL] | IC50 (Fusarium oxysporum) [µg/mL] | IC50 (Cryptococcus neoformans) [µg/mL] | IC50 (Nakaseomyces glabratus [3]) [µg/mL] | IC50 (Candida albicans) [µg/mL] | IC50 (Aspergillus fumigatus) [µg/mL] |
| --- | --- | --- | --- | --- | --- | --- | --- | --- | --- | --- |
| Cn1cc(NC(=O)c2cc(NC(=O)c3ccc(/C=C/c4ccc(C(F)(F)F)cc4)cc3)cn2C)cc1C(=O)NCCC(=N)N | 1.56 (≈ 0.945 µg/mL) |  |  |  |  |  |  |  |  |  |
| CN(C)c1ccc(/C=C/c2ccc(C(=O)Nc3cc(C(=O)Nc4cc(C(=O)NCCC(=N)N)n(C)c4)n(C)c3)cn2)cc1 |  | 0.8 (≈ 1.38 µM) | 0.8 (≈ 1.38 µM) | 0.8 (≈ 1.38 µM) | 0.8 (≈ 1.38 µM) | 0.8 (≈ 1.38 µM) | 0.8 (≈ 1.38 µM) | 0.8 | 0.8 (≈ 1.38 µM) | 0.8 (≈ 1.38 µM) |
